57 compounds from BindingDB's records for patent US20250289799 (Jiangsu Yahong Meditech Co., 2025) can be followed below.

The target in this assay is Ubiquitin carboxyl-terminal hydrolase 1/WD repeat-containing protein 48 (Homo sapiens, UniProt O94782+Q8TAF3). The assay is described as follows: In Vitro USP1  Inhibitory Activity. As for the experimental part: Experimental Methods1) Preparation of 1× assay buffer: 1× assay buffer (modified Tris buffer) was prepared;2) Compound dilution: The compound was transferred to the assay plate by Echo.
Chain of Ubiquitin carboxyl-terminal hydrolase 1/WD repeat-containing protein 48 (O94782 whole entry): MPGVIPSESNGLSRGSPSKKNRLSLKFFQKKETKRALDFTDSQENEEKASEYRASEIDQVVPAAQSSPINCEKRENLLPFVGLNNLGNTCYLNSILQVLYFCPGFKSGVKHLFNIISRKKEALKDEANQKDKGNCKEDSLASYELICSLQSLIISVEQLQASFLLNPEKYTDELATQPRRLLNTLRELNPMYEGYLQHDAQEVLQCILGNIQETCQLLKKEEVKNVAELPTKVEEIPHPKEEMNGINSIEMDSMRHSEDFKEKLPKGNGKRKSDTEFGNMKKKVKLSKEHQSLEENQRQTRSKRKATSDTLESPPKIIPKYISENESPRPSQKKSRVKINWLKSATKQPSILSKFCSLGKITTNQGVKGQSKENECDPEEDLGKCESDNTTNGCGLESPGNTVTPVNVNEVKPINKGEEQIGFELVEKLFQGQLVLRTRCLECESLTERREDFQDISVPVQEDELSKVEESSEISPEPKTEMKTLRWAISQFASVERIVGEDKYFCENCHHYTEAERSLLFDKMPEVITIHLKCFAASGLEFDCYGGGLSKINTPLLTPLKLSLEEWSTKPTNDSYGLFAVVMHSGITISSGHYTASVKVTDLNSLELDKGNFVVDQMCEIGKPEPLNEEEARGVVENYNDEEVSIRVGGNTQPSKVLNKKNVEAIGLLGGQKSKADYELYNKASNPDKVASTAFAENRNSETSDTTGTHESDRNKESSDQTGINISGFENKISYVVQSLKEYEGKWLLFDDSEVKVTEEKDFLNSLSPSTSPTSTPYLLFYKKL
Chain of Ubiquitin carboxyl-terminal hydrolase 1/WD repeat-containing protein 48 (Q8TAF3 whole entry): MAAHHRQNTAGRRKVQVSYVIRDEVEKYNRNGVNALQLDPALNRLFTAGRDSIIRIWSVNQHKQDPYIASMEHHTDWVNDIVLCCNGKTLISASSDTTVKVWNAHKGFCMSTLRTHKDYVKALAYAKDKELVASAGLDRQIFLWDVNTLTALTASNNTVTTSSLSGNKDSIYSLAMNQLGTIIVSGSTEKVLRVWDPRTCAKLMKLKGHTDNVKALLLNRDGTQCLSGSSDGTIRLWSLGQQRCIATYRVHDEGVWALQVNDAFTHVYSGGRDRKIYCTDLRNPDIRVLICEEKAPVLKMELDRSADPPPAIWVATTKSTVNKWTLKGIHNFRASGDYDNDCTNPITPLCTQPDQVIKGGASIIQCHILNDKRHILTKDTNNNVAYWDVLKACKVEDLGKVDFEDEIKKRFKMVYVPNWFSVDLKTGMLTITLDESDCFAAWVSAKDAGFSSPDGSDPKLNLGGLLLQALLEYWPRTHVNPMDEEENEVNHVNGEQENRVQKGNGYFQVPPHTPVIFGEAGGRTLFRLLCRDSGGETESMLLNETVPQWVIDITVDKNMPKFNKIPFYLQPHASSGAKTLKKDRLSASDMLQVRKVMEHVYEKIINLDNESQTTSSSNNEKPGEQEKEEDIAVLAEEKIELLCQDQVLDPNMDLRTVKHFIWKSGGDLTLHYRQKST

For `COc1cnc(-c2c(OC)ncnc2C2CC2)nc1NCC1CCN(c2nc(C(F)(F)F)cn2C)CC1` [US20250289799, Example 95], the IC50 (commonly the concentration that gives 50% inhibition) was 8.4 nM.
The compound `COc1cnc(-c2c(OC)ncnc2C2CC2)nc1NCc1ccc(-c2nc(C(F)(F)F)cn2C)cc1` [US20250289799, Example 96] had an IC50 of 4.8 nM.
In the case of `COc1cnc(-c2c(OC)ncnc2C2CC2)nc1NCc1ccc2c(c1)CCN(C(C)C)C2=O` [US20250289799, Example 97] it was 263 nM.
`COc1cnc(-c2c(OC)ncnc2C2CC2)nc1NCc1ccc(OCc2ccccn2)cc1` [US20250289799, Example 98]: half-maximal inhibition (IC50) was put at 144 nM.
`CCOCCOc1ccc(CNc2nc(-c3c(OC)ncnc3C3CC3)ncc2OC)cc1` [US20250289799, Example 99] showed an IC50 of 15.1 nM.
Regarding `COc1cc(-c2nc(C(F)(F)F)cn2C)ccc1CNc1nc(-c2c(OC)ncnc2C2CC2)ncc1OC` [US20250289799, Example 100], inhibition was half-maximal at 4.1 nM (IC50).
Turning to `COc1cc(CNc2nc(-c3c(OC)ncnc3C3CC3)ncc2OC)ccc1-c1nc(C(F)(F)F)cn1C` [US20250289799, Example 101], the 50% inhibitory concentration (IC50) was 15 nM.
`COc1cc(-n2nc(C(F)(F)F)cc2C)ccc1CNc1nc(-c2c(OC)ncnc2C2CC2)ncc1OC` [US20250289799, Example 102] showed an IC50 of 4.4 nM.
In the case of `COc1cc(CNc2nc(-c3c(OC)ncnc3C3CC3)ncc2OC)ccc1-n1nc(C(F)(F)F)cc1C` [US20250289799, Example 103], half-maximal inhibition (IC50) was put at 10 nM.
`COc1cnc(-c2c(OC)ncnc2C2CC2)nc1NCC12CCC(c3nc(C(F)(F)F)cn3C)(CC1)CC2` [US20250289799, Example 104] gave a 50% inhibitory concentration (IC50) of 8.8 nM.
In the case of `COc1cnc(-c2c(OC)ncnc2C2CC2)nc1NCc1ccc(-c2nc(C)cn2C(F)F)cc1` [US20250289799, Example 105] it was 60 nM.
`COc1cnc(-c2c(OC)ncnc2C2CC2)nc1NCc1ccc(-c2nc(C(F)(F)F)cn2C(C)C)cc1` [US20250289799, Example 106] yielded a concentration for half-maximal inhibition (IC50) of 2.9 nM.
Turning to `COc1cnc(-c2c(OC)ncnc2C2CC2)nc1NCc1ccc(-c2nc(C(F)(F)F)cn2CF)cc1` [US20250289799, Example 107], the half-maximal inhibitory concentration (IC50) was found to be 16 nM.
In the case of `COc1ncnc(C2CC2)c1-c1ncc(OC(C)C)c(N(C)CC2CCN(c3nc(C(F)(F)F)cn3C)CC2)n1` [US20250289799, Example 108], the IC50 amounted to 19.7 nM.
For `COc1ncnc(C2CC2)c1-c1ncc(OC(C)C)c(N(C)Cc2ccc(-c3nc(C(F)(F)F)cn3C)cc2)n1` [US20250289799, Example 109], the IC50 came to 5.3 nM.
For `COc1ncnc(C2CC2)c1-c1ncc(OC(C)C)c(NCC2CCN(c3nc(C(F)(F)F)cn3C)CC2)n1` [US20250289799, Example 110], 28.6 nM corresponded to half-maximal inhibition (IC50).
In the case of `COc1ncnc(C2CC2)c1-c1ncc(OC(C)C)c(NCc2ccc(-c3nc(C(F)(F)F)cn3C)cc2)n1` [US20250289799, Example 111] it was 10.4 nM; in that of `COc1ncnc(C2CC2)c1-c1ncc(OC(C)C)c(NCC23CCC(c4ccc(C(F)(F)F)cn4)(CC2)CC3)n1` [US20250289799, Example 112], 266 nM; in that of `COc1ncnc(C2CC2)c1-c1nc(NCc2ccc(-c3nc(C(F)(F)F)cn3C)s2)c2occc2n1` [US20250289799, Example 113], 23 nM.
`COc1ncnc(C2CC2)c1-c1nc(NCc2ccc3c(c2)CCN(C)C3=O)c2occc2n1` [US20250289799, Example 114] gave an IC50 of 648 nM.
For the compound `COc1ncnc(C2CC2)c1-c1nc(NCc2ccc3c(c2)CCN(C(C)C)C3=O)c2occc2n1` [US20250289799, Example 115], inhibition was half-maximal at 77 nM (IC50).
In the case of `COc1ncnc(C2CC2)c1-c1nc(NCc2ccc(OCc3ccccn3)cc2)c2occc2n1` [US20250289799, Example 116], the IC50 came to 19.4 nM.
In the case of `CCOCCOc1ccc(CNc2nc(-c3c(OC)ncnc3C3CC3)nc3ccoc23)cc1` [US20250289799, Example 117] it was 13.8 nM; in that of `COc1ncnc(C2CC2)c1-c1nc(NCc2ccc(OC3CC(OC)C3)cc2)c2occc2n1` (configuration not stated) [US20250289799, Example 118], 58 nM.
In the case of `COc1cc(-c2nc(C(F)(F)F)cn2C)ccc1CNc1nc(-c2c(OC)ncnc2C2CC2)nc2ccoc12` [US20250289799, Example 119] it was 7.6 nM.
Compound `COc1cc(CNc2nc(-c3c(OC)ncnc3C3CC3)nc3ccoc23)ccc1-c1nc(C(F)(F)F)cn1C` [US20250289799, Example 120] showed a half-maximal inhibitory concentration (IC50) of 8.9 nM.
`COc1cc(-n2nc(C(F)(F)F)cc2C)ccc1CNc1nc(-c2c(OC)ncnc2C2CC2)nc2ccoc12` [US20250289799, Example 121]: the IC50 is 8.3 nM.
Turning to `COc1cc(CNc2nc(-c3c(OC)ncnc3C3CC3)nc3ccoc23)ccc1-n1nc(C(F)(F)F)cc1C` [US20250289799, Example 122], the IC50 was found to be 13 nM.
Consider `COc1ncnc(C2CC2)c1-c1nc(NCc2ccc(-c3nc(C(F)F)cn3C)cc2)c2occc2n1` [US20250289799, Example 123], for which the IC50 was 20 nM.
The compound `COc1ncnc(C2CC2)c1-c1ncc(Cl)c(NCc2ccc(-c3nc(C(F)(F)F)cn3C)cc2)n1` [US20250289799, Example 124] registered an IC50 of 6.1 nM.
As to `COc1ncnc(C2CC2)c1-c1ncc(Cl)c(NCc2ccc(-c3nc(C(F)(F)F)cn3C3CC3)cc2)n1` [US20250289799, Example 125], the IC50 came out at 3.1 nM.
`COc1ncnc(C2CC2)c1-c1ncc(Cl)c(NCc2ccc(-c3nc(C(F)(F)F)cn3CF)cc2)n1` [US20250289799, Example 126] had an IC50 of 13 nM.
The same measure for `[2H]C([2H])([2H])N(Cc1ccc(-c2nc(C(F)(F)F)cn2C2CC2)cc1)c1nc(-c2c(OC)ncnc2C2CC2)ncc1F` [US20250289799, Example 128]: 2.6 nM; for `[2H]C([2H])([2H])N(Cc1ccc(-c2nc(C(F)(F)F)cn2CF)cc1)c1nc(-c2c(OC)ncnc2C2CC2)ncc1F` [US20250289799, Example 130]: 19 nM; for `COc1ncnc(C2CC2)c1-c1ncc(C#N)c(NCc2ccc(-c3nc(C(F)(F)F)cn3C)cc2)n1` [US20250289799, Example 131]: 7.4 nM.
Regarding `C#Cc1cnc(-c2c(OC)ncnc2C2CC2)nc1NCc1ccc(-c2nc(C(F)(F)F)cn2C)cc1` [US20250289799, Example 132], inhibition was half-maximal at 6 nM (IC50).
With `COc1ncnc(C2CC2)c1-c1ncc(OC(F)F)c(NCC2CCN(c3nc(C(F)(F)F)cn3C)CC2)n1` [US20250289799, Example 133], half-maximal inhibition (IC50) was put at 15 nM.
In turn, `COc1ncnc(C2CC2)c1-c1ncc(OC(F)F)c(NCc2ccc(-c3nc(C(F)(F)F)cn3C)cc2)n1` [US20250289799, Example 134] gave a 50% inhibitory concentration (IC50) of 3.2 nM.
For the compound `COc1ncnc(C2CC2)c1-c1ncc(OC(F)F)c(NCc2ccc(-n3nc(C(F)(F)F)cc3C)cc2)n1` [US20250289799, Example 135], it took 3.2 nM to reach half-maximal inhibition (IC50).
`COc1cc(-c2nc(C(F)(F)F)cn2C)ccc1CNc1nc(-c2c(OC)ncnc2C2CC2)ncc1OC(F)F` [US20250289799, Example 136] registered an IC50 of 17 nM.
Regarding `COc1ncnc(C2CC2)c1-c1ncc(CO)c(NCc2ccc(-c3nc(C(F)(F)F)cn3C(C)C)cc2)n1` [US20250289799, Example 137], the 50% inhibitory concentration (IC50) is 24 nM.
Take `COCc1cnc(-c2c(OC)ncnc2C2CC2)nc1N(C)Cc1ccc(-c2nc(C(F)(F)F)cn2C(C)C)cc1` [US20250289799, Example 138]: the half-maximal inhibitory concentration (IC50) turned out to be 9 nM.
`C#CCN(Cc1ccc(-c2nc(C(F)(F)F)cn2C)cc1)c1nc(-c2c(OC)ncnc2C2CC2)ncc1OC` [US20250289799, Example 139] returned an IC50 of 5.2 nM.
As to `COc1cnc(-c2c(OC)ncnc2C2CC2)nc1N(Cc1ccc(-c2nc(C(F)(F)F)cn2C)cc1)C1CCOC1` (configuration not stated) [US20250289799, Example 140], it took 73 nM to reach half-maximal inhibition (IC50).
`COc1cnc(-c2c(OC)ncnc2C2CC2)nc1N(Cc1ccc(-c2nc(C(F)(F)F)cn2C)cc1)C1CC1` [US20250289799, Example 141] gave a concentration for half-maximal inhibition (IC50) of 9.5 nM.
Take `COc1cnc(-c2c(OC)ncnc2C2CC2)nc1N(Cc1ccc(-c2nc(C(F)(F)F)cn2C)cc1)OC` [US20250289799, Example 142]: the half-maximal inhibitory concentration (IC50) stood at 25 nM.
Take `COc1cnc(-c2cccc3ccn(C)c23)nc1NCc1ccc(-c2nc(C(F)(F)F)cn2C)cc1` [US20250289799, Example 143]: the midpoint of inhibition, the IC50, lay at 31 nM.
As to `COc1cnc(-c2cccc3ccn(C)c23)nc1NCc1ccc(-n2nc(C(F)(F)F)cc2C)cc1` [US20250289799, Example 144], the half-inhibitory concentration (IC50) turned out to be 68.6 nM.
The compound `COc1cnc(-c2cccc3c2N(C)CC3)nc1NCc1ccc(-c2nc(C(F)(F)F)cn2C)cc1` [US20250289799, Example 145] displayed a half-inhibitory concentration (IC50) of 19 nM.
`COc1cnc(-c2c(C)ncn2C(C)C)nc1NCc1ccc(-c2nc(C(F)(F)F)cn2C)cc1` [US20250289799, Example 147]: the IC50 amounted to 364 nM.
`Cc1ncn(C(C)C)c1-c1nc(NCc2ccc(-c3nc(C(F)(F)F)cn3C)cc2)c2occc2n1` [US20250289799, Example 149] came in with an IC50 of 69.2 nM.
For the compound `Cc1ncn(C(C)C)c1-c1nc(NCC23CCC(c4ccc(C(F)(F)F)cn4)(CC2)CC3)c2occc2n1` [US20250289799, Example 150], the IC50 is 431 nM.
In turn, `COc1cnc(-c2cccnc2C2CC2)nc1N(C)CC1CCN(c2ccccn2)CC1` [US20250289799, Example 151] registered a half-maximal inhibitory concentration (IC50) of 72 nM.
As to `COc1cnc(-c2cccnc2C2CC2)nc1NCC1CCN(c2nc(C(F)(F)F)cn2C)CC1` [US20250289799, Example 152], the half-maximal inhibitory concentration (IC50) amounted to 7.5 nM.
The compound `COc1cnc(-c2cccnc2C2CC2)nc1NCc1ccc(-c2nc(C(F)(F)F)cn2C)cc1` [US20250289799, Example 153] displayed a half-maximal inhibitory concentration (IC50) of 3.4 nM.
In the case of `COc1cnc(-c2cccnc2C2CC2)nc1NCc1ccc(-n2nc(C(F)(F)F)cc2C)cc1` [US20250289799, Example 154], 6.2 nM corresponded to half-maximal inhibition (IC50).
The same measure for `c1ccc(-c2ccc(CNc3nc(-c4cccnc4C4CC4)nc4ccoc34)cc2)nc1` [US20250289799, Example 155]: 12 nM.
